Test [1] deals with recombinant human Mcl-1 (residues 171-327) / Bim interaction (Homo sapiens (Human), UniProt Q07820). Kind of test: biochemical. It is filed as binding. Conditions: read-out: Mcl-1 HTRF IC50. (TR-FRET usually uses a lanthanide donor and a delayed reading to cut background.)
In test [2] the test system is human multiple myeloma cell line, OPM-2. Kind of test: Cell viability assay (OPM-2 10 FBS), CellTiter-Glo. Type of test: cell-based. The settings on record: Homo sapiens, OPM-2, 16 h. In outline: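 Steps: plate cells at 3000/well in 10% FBS growth medium, add serially diluted compound, incubate 16 h at 37 °C with 5% CO2, add detection reagent and read luminescence after 25 min. A 4-parameter logistic model gives IC50.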
In general terms: Cellular ATP, detected with luciferase, serves as a proxy for viable cell number.

Where [3] appears, read: TR-FRET, Mcl-1(171-327) / biotin-Bim (51-76).
The mark [4] stands for this setting: read-out: OPM-2 10% FBS IC50 IP, OPM-2 cells, 10% FBS, 16 h, CellTiter-Glo.
[5] abbreviates: 0.1 nM Mcl-1(171-327), 0.05 nM biotin-Bim (51-76).
The mark [6] stands for this setting: read-out: OPM-2 10% FBS IC50 IP, OPM-2 cells, 10% FBS, 16 h incubation.

Like-named read-outs stand apart in the source and are kept apart here.

Sequence of recombinant human Mcl-1 (residues 171-327) / Bim interaction (Q07820 171-327): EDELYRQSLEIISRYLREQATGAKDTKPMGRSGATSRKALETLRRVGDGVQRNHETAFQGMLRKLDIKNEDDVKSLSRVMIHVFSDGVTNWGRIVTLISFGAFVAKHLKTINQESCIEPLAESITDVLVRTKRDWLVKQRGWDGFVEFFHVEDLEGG

Regarding `COCc1nc(C[C@]2(OC)/C=C/C[C@H](C)[C@@H](C)S(=O)(=O)NC(=O)c3ccc4c(c3)N(C[C@@H]3CC[C@H]32)C[C@@]2(CCCc3cc(Cl)ccc32)CO4)oc1C` [Example 100585, (1S,3′R,6′R,7′S,8′E,11′S,12′R)-6-chloro-7′-methoxy-7′-((4-(methoxymethyl)-5-methyl-1,3-oxazol-2-yl)methyl)-11′,12′-dimethyl-3,4-dihydro-2H,15′H-spiro[naphthalene-1,22′-[20]oxa[13]thia[1,14]diazatetracyclo [14.7.2.0~3,6~.0~19,24~]pentacosa[8,16,18,24]tetraen]-15′-one 13′,13′-dioxide], the IC50 came to 0.057 nM in test [1] (setting [3]) and 696 nM in test [2] (setting [4]).
Turning to `C[C@@H]1[C@@H](C)C/C=C/[C@@](O)(c2ncccc2F)[C@@H]2CC[C@H]2CN2C[C@@]3(CCCc4cc(Cl)ccc43)COc3ccc(cc32)C(=O)NS1(=O)=O` (single isomer, unassigned) [Example 100390], the results for the half-inhibitory concentration (IC50) in test [1] (setting [3]) and in test [2] (setting [4]) were 0.186 nM and 649 nM, respectively.
Consider `CO[C@]1(CN(C)C)/C=C/C[C@H](C)[C@@H](C)S(=O)(=O)NC(=O)c2ccc3c(c2)N(C[C@@H]2CC[C@H]21)C[C@@]1(CCCc2cc(Cl)ccc21)CO3` [Example 69, (1S,3′R,6′R,7′R,8′E,11′S,12′R)-6-chloro-7′-((dimethylamino)methyl)-7′-methoxy-11′,12′-dimethyl-3,4-dihydro-2H,15′H-spiro[naphthalene-1,22′-[20]oxa[13]thia[1,14]diazatetracyclo [14.7.2.0~3,6~.0~19,24~]pentacosa[8,16,18,24]tetraen]-15′-one 13′,13′-dioxide], for which the half-maximal inhibitory concentration (IC50) was 3.83 nM in test [1] (setting [5]) and 1480 nM in test [2] (setting [6]).
In the case of `CO[C@@]1(C#CCCN2CCOC[C@@H]2C)/C=C/C[C@H](C)[C@@H](C)S(=O)(=O)NC(=O)c2ccc3c(c2)N(C[C@@H]2CC[C@H]21)C[C@@]1(CCCc2cc(Cl)ccc21)CO3` [Example 100506, (1S,3′R,6′R,7′S,8′E,11′S,12′R)-6-chloro-7′-methoxy-11′,12′-dimethyl-7′-(4-((3S)-3-methyl-4-morpholinyl)-1-butyn-1-yl)-3,4-dihydro-2H,15′H-spiro[naphthalene-1,22′-[20]oxa[13]thia[1,14]diazatetracyclo [14.7.2.0~3,6~.0~19,24~]pentacosa[8,16,18,24]tetraen]-15′-one 13′,13′-dioxide], the IC50 is 0.497 nM in test [1] (setting [3]) and 1270 nM in test [2] (setting [4]).
Consider `CO[C@@]1(CN2CC(C)(C#N)C2)/C=C/C[C@H](C)[C@@H](C)S(=O)(=O)NC(=O)c2ccc3c(c2)N(C[C@@H]2CC[C@H]21)C[C@@]1(CCCc2cc(Cl)ccc21)CO3` [Example 67, 1-(((1S,3′R,6′R,7′S,8′E,11′S, 12′R)-6-chloro-7′-methoxy-11′,12′-dimethyl-13′,13′-dioxido-15′-oxo-3,4-dihydro-2H-spiro[naphthalene-1,22′-[20]oxa[13]thia[1,14]diazatetracyclo [14.7.2.0~3,6~.0~19,24~]pentacosa[8,16,18,24]tetraen]-7′-yl)methyl)-3-methyl-3-azetidinecarbonitrile], for which the results for the 50% inhibitory concentration (IC50) in test [1] (setting [5]) and in test [2] (setting [6]) were 0.197 nM and 149 nM, respectively.
On the same counts, the results for `CCO[C@]1(CN2CCN3CCOC[C@@H]3C2)/C=C/C[C@H](C)[C@@H](COC)S(=O)(=O)NC(=O)c2ccc3c(c2)N(C[C@@H]2CC[C@H]21)C[C@@]1(CCCc2cc(Cl)ccc21)CO3` [Example 171, (1S,3′R,6′R,7′R,8′E,11′S,12′S)-6-chloro-7′-ethoxy-7′-((9aS)-hexahydropyrazino[2,1-c][1,4]oxazin-8(1H)-ylmethyl)-12′-(methoxymethyl)-11′-methyl-3,4-dihydro-2H,15′H-spiro[naphthalene-1,22′-[20]oxa[13]thia[1,14]diazatetracyclo [14.7.2.0~3,6~.0~19,24~]pentacosa[8,16,18,24]tetraen]-15′-one 13′,13′-dioxide] are 0.074 nM and 122 nM.
For `CO[C@]1(C=O)/C=C/C[C@H](C)[C@@H](Cc2ccccc2)S(=O)(=O)NC(=O)c2ccc3c(c2)N(C[C@@H]2CC[C@H]21)C[C@@]1(CCCc2cc(Cl)ccc21)CO3` (single isomer, unassigned) [Example 100575], the half-inhibitory concentration (IC50) is 1.3 nM in test [1] (setting [3]) and 2500 nM in test [2] (setting [4]).
`CCO[C@]1(CN2CCN3CCOC[C@@H]3C2)/C=C/C[C@H](C)[C@@H](CC2CCC2)S(=O)(=O)NC(=O)c2ccc3c(c2)N(C[C@@H]2CC[C@H]21)C[C@@]1(CCCc2cc(Cl)ccc21)CO3` [Example 45, (1S,3′R,6′R,7′R,8′E,11′S,12′R)-6-chloro-12′-(cyclobutylmethyl)-7′-ethoxy-7′-((9aS)-hexahydropyrazino[2,1-c][1,4]oxazin-8(1H)-ylmethyl)-11′-methyl-3,4-dihydro-2H,15′H-spiro[naphthalene-1,22′-[20]oxa[13]thia[1,14]diazatetracyclo [14.7.2.0~3,6~.0~19,24~]pentacosa[8,16,18,24]tetraen]-15′-one 13′,13′-dioxide]: the IC50 came out at 0.245 nM in test [1] (setting [5]) and 891 nM in test [2] (setting [6]).
On the same counts, the results for `CC(C)O[C@]1(CN2CCN(C(C)C)[C@H](C)C2)/C=C/C[C@H](C)[C@@H](C)S(=O)(=O)NC(=O)c2ccc3c(c2)N(C[C@@H]2CC[C@H]21)C[C@@]1(CCCc2cc(Cl)ccc21)CO3` [Example 51] are 0.072 nM and 99 nM.
Take `CO[C@]1(CCN2CCOCC2)/C=C/C[C@H](C)[C@@H](C)S(=O)(=O)NC(=O)c2ccc3c(c2)N(C[C@@H]2CC[C@H]21)C[C@@]1(CCCc2cc(Cl)ccc21)CO3` [Example 100365, (1S,3′R,6′R,7′R,8′E,11′S,12′R)-6-chloro-7′-methoxy-11′,12′-dimethyl-7′-(2-(4-morpholinyl)ethyl)-3,4-dihydro-2H,15′H-spiro[naphthalene-1,22′-[20]oxa[13]thia[1,14]diazatetracyclo [14.7.2.0~3,6~.0~19,24~]pentacosa[8,16,18,24]tetraen]-15′-one 13′,13′-dioxide]: the figures for the IC50 in test [1] (setting [3]) and in test [2] (setting [4]) were 0.257 nM and 245 nM, respectively.
Regarding `CO[C@@]1(CN2CCOCC2)/C=C/C[C@H](C)[C@@H](C)S(=O)(=O)NC(=O)c2ccc3c(c2)N(C[C@@H]2CC[C@H]21)C[C@@]1(CCCc2cc(Cl)ccc21)CO3` [Example 52, (1S,3′R,6′R,7′S,8′E,11′S,12′R)-6-chloro-7′-methoxy-11′,12′-dimethyl-7′-(4-morpholinylmethyl)-3,4-dihydro-2H,15′H-spiro[naphthalene-1,22′-[20]oxa[13]thia[1,14]diazatetracyclo [14.7.2.0~3,6~.0~19,24~]pentacosa[8,16,18,24]tetraen]-15′-one 13′,13′-dioxide], the concentration for half-maximal inhibition (IC50) was found to be 0.522 nM in test [1] (setting [5]) and 330 nM in test [2] (setting [6]).
For the molecule `CC[C@]1(O)/C=C/C[C@H](C)[C@@H](C)S(=O)(=O)NC(=O)c2ccc3c(c2)N(C[C@@H]2CC[C@H]21)C[C@@]1(CCCc2cc(Cl)ccc21)CO3` [Example 100207, (1S,3′R,6′R,7′S,8′E,11′S,12′R)-6-chloro-7′-ethyl-7′-hydroxy-11′,12′-dimethyl-3,4-dihydro-2H,15′H-spiro[naphthalene-1,22′-[20]oxa[13]thia[1,14]diazatetracyclo [14.7.2.0~3,6~.0~19,24~]pentacosa[8,16,18,24]tetraen]-15′-one 13′,13′-dioxide], the figures for the 50% inhibitory concentration (IC50) in test [1] (setting [3]) and in test [2] (setting [4]) were 0.141 nM and 215 nM, respectively.

A word on the IC50: it is the concentration that inhibits the measured activity by half.
